ChEMBL document CHEMBL4000165, “Chemosensitizing effect of Paris Saponin I on Camptothecin and 10-hydroxycamptothecin in lung cancer cells via p38 MAPK, ERK, and Akt signaling pathways” (Eur J Med Chem, 2017)
Activity calls are given as the source filed them. The rule behind the calls is not given here.

Test system: NCI-H446
Assay: Effect on p38 MAPK protein expression in human NCI-H446 cells at 0.6 uM in presence of HCPT by Western blot method
Assay type: functional, cell-based

With `C[C@@H]1CC[C@@]2(OC1)O[C@H]1C[C@H]3[C@@H]4CC=C5C[C@@H](O[C@@H]6O[C@H](CO)[C@@H](O[C@@H]7O[C@@H](CO)[C@H](O)[C@H]7O)[C@H](O)[C@H]6O[C@@H]6O[C@@H](C)[C@H](O)[C@@H](O)[C@H]6O)CC[C@]5(C)[C@H]4CC[C@]3(C)[C@H]1[C@@H]2C` the Activity was “inactive”.
